Inhibition, ID50 and Activity data for 71 molecules are collected here from ChEMBL document CHEMBL1146317, “2-(2,2,2-Trifluoroethyl)-5,6-dichlorobenzimidazole derivatives as potent androgen receptor antagonists” (Bioorg Med Chem Lett, 2007).

Active and inactive are the calls of the source. The rule behind the calls is not given here.

For data set [1], the species on record is Rattus norvegicus. Nature of the data set: Inhibition of testoterone-induced prostate weight in castrated immature Sprague-Dawley rat at 2 mg/day relative to control. It is filed as functional, Prostate gland. As to conditions: for Activity: Prostate gland.
For data set [2], the species on record is Rattus norvegicus. The data set can be described thus: Inhibition of testoterone-induced prostate weight in castrated immature Sprague-Dawley rat. The data set is classed as functional, Prostate gland.
Data set [3] is filed under the species Rattus norvegicus. Nature of the data set: Inhibition of testoterone-induced prostate weight in castrated immature Sprague-Dawley rat at 1 mg/day relative to control. The data set is classed as functional, Prostate gland.
The species entered for data set [4] is Rattus norvegicus. The data set can be described thus: Toxicity in castrated immature Sprague-Dawley rat at 2 mg/day. As to conditions: in vivo.

What is called Inhibition is how much of the control response was suppressed. A low value points to little suppression. In data set [1], `CCOC(=O)c1ccc(Cn2c(CC(F)(F)F)nc3cc(Cl)c(Cl)cc32)cc1` gave an Inhibition of 56%.
In turn, `O=C(Cn1c(CC(F)(F)F)nc2cc(Cl)c(Cl)cc21)c1cccc([N+](=O)[O-])c1` returned an Inhibition in data set [1] of 14%.
Still for that read-out and setting: the value for `O=C(Cn1c(CC(F)(F)F)nc2cc(Cl)c(Cl)cc21)c1ccc(Cl)cc1` was 33%.
Same read-out and setting: the value for `N#Cc1ccc(OCCn2c(CC(F)(F)F)nc3cc(Cl)c(Cl)cc32)cc1` was 86%.
Same read-out and setting: then `Cc1ccccc1Cn1c(CC(F)(F)F)nc2cc(Cl)c(Cl)cc21`, with 73%.
In data set [1], `COc1ccccc1Cn1c(CC(F)(F)F)nc2cc(Cl)c(Cl)cc21` had an Inhibition of 51%.
Take `O=[N+]([O-])c1ccccc1Cn1c(CC(F)(F)F)nc2cc(Cl)c(Cl)cc21`: the Inhibition in data set [1] came to 81%. This molecule came in with an ID50 in data set [2] of 0.95 mg/day.
Consider `O=C(Cn1c(CC(F)(F)F)nc2cc(Cl)c(Cl)cc21)c1ccccc1`, for which the Inhibition in data set [1] is given as 38%.
The same measure, in the same setting: then `Oc1ccc(Cn2c(CC(F)(F)F)nc3cc(Cl)c(Cl)cc32)cc1`, with 28%; and `N#Cc1ccc(Cn2c(CC(F)(F)F)nc3cc(Cl)c(Cl)cc32)cc1`, with 68%; and `CS(=O)(=O)c1ccc(Cn2c(CC(F)(F)F)nc3cc(Cl)c(Cl)cc32)cc1`, with 32%.
For the molecule `Fc1ccc(Cn2c(CC(F)(F)F)nc3cc(Cl)c(Cl)cc32)cc1`, the Inhibition in data set [1] is reported as 80%. This molecule returned an ID50 in data set [2] of 0.19 mg/day.
As for `Cn1c(C(C)(O)C(F)(F)F)nc2cc(Cl)c(Cl)cc21` (centres undefined), in data set [1], the result was inactive.
`FC(F)(F)Cc1nc2cc(Cl)c(Cl)cc2n1Cc1ccccc1-c1cccnc1`: the Inhibition in data set [1] is on record as 80%.
The same measure, in the same setting: the value for `Fc1cccc(Cn2c(CC(F)(F)F)nc3cc(Cl)c(Cl)cc32)c1` was 55%; that for `Fc1ccc(OCCn2c(CC(F)(F)F)nc3cc(Cl)c(Cl)cc32)cc1` was 40%.
`FC(F)(F)Cc1nc2cc(Cl)c(Cl)cc2n1Cc1ccccc1Br` had an Inhibition in data set [1] of 84%. Also, the ID50 in data set [2] is on record as 0.38 mg/day.
`FC(F)(F)Cc1nc2cc(Cl)c(Cl)cc2n1Cc1cccc(OC(F)(F)F)c1` showed an Inhibition in data set [1] of 26%.
Same read-out and setting: then `FC(F)(F)Cc1nc2cc(Cl)c(Cl)cc2n1Cc1ccc(C(F)(F)F)cc1`, with 75%; and `O=S(=O)(Cc1ccccc1Cn1c(CC(F)(F)F)nc2cc(Cl)c(Cl)cc21)c1ccccc1`, with 74%.
The same measure, in the same setting: then `O=C(O)c1ccc(Cn2c(CC(F)(F)F)nc3cc(Cl)c(Cl)cc32)cc1`, with 38%.
On the same count and under the same terms, then `Fc1c(F)c(F)c(Cn2c(CC(F)(F)F)nc3cc(Cl)c(Cl)cc32)c(F)c1F`, with 19%; and `Cc1cccc(Cn2c(CC(F)(F)F)nc3cc(Cl)c(Cl)cc32)c1`, with 31%.
Take `CCC(=O)Cn1c(CC(F)(F)F)nc2cc(Cl)c(Cl)cc21`: in data set [1], the Inhibition came to 64%.
Still for that read-out and setting: the value for `N#Cc1ccccc1Cn1c(CC(F)(F)F)nc2cc(Cl)c(Cl)cc21` was 74%.
With `O=C(Cn1c(CC(F)(F)F)nc2cc(Cl)c(Cl)cc21)c1ccc(Br)cc1`, the Inhibition in data set [1] worked out at 27%.
Still for that read-out and setting: the value for `COc1ccc(Cn2c(CC(F)(F)F)nc3cc(Cl)c(Cl)cc32)cc1` was 51%.
In turn, `O=C(Cn1c(CC(F)(F)F)nc2cc(Cl)c(Cl)cc21)c1cccs1` came in with an Inhibition in data set [1] of 43%.
In turn, `O=C(Cn1c(CC(F)(F)F)nc2cc(Cl)c(Cl)cc21)c1ccccn1` had an Inhibition in data set [1] of 76%. Moreover, the ID50 in data set [2] was found to be 0.47 mg/day.
Regarding `CC(O)(c1nc2cc(Cl)c(Cl)cc2[nH]1)C(F)(F)F` (centres undefined), the Inhibition in data set [1] was 74%.
Consider `FC(F)(F)Cc1nc2cc(Cl)c(Cl)cc2n1Cc1ccccc1-c1ccccn1`, for which the Inhibition in data set [1] turned out to be 89%. In data set [2], this molecule registered an ID50 of 0.4 mg/day.
With `OC(O)(c1nc2cc(Cl)c(Cl)cc2[nH]1)C(F)(F)F`, the Inhibition in data set [1] came to 94%.
Still for that read-out and setting: the value for `O=[N+]([O-])c1ccc(Cn2c(CC(F)(F)F)nc3cc(Cl)c(Cl)cc32)cc1` was 61%; that for `FC(F)(F)Cc1nc2cc(Cl)c(Cl)cc2n1Cc1ccc(OC(F)(F)F)cc1` was 35%; that for `O=C(Cn1c(CC(F)(F)F)nc2cc(Cl)c(Cl)cc21)c1ccc([N+](=O)[O-])cc1` was 71%.
Consider `CCn1c(C(C)(O)C(F)(F)F)nc2cc(Cl)c(Cl)cc21` (centres undefined), for which the result in data set [1] was inactive.
As for `O=C(Cn1c(CC(F)(F)F)nc2cc(Cl)c(Cl)cc21)c1ccc(F)cc1`, the Inhibition in data set [1] came out at 67%.
In data set [1], `CC(O)(CS(=O)(=O)c1ccc(F)cc1)C(=O)Nc1ccc(C#N)c(C(F)(F)F)c1` (centres undefined) [BICALUTAMIDE] returned an Inhibition of 70%. This molecule also returned an ID50 in data set [2] of 0.23 mg/day.
For `FC(F)(F)Cc1nc2cc(Cl)c(Cl)cc2n1Cc1ccc(Cl)cc1`, in that order: 77% and 0.28 mg/day.
For `FC(c1nc2cc(Cl)c(Cl)cc2[nH]1)C(F)(F)F` (centres undefined), the Inhibition in data set [3] came out at 81%.
Turning to `FC(F)(F)Cc1nc2cc(Cl)c(Cl)cc2n1Cc1ccc(OCc2ccccc2)cc1`, the Inhibition in data set [1] is recorded as 46%.
In data set [1], `FC(F)(F)Cc1nc2cc(Cl)c(Cl)cc2n1Cc1ccccc1Cl` had an Inhibition of 90%. Besides, in data set [2], the ID50 was 0.26 mg/day.
Regarding `O=C(Cn1c(CC(F)(F)F)nc2cc(Cl)c(Cl)cc21)c1cccnc1`, in data set [1], the outcome was inactive.
Molecule `FC(F)(F)Cc1nc2cc(Cl)c(Cl)cc2n1Cc1cccc(Cl)c1` returned an Inhibition in data set [1] of 35%.
Regarding `COc1cccc(Cn2c(CC(F)(F)F)nc3cc(Cl)c(Cl)cc32)c1`, the outcome in data set [1] was inactive.
For `FC(F)(F)Cc1nc2cc(Cl)c(Cl)cc2n1Cc1ccccc1-c1ccncc1`, the Inhibition in data set [1] is reported as 42%.
Same read-out and setting: the value for `OC(O)(c1nc2cc(Cl)c(Cl)cc2n1Cc1ccccc1)C(F)(F)F` was 85%; that for `COc1ccccc1C(=O)Cn1c(CC(F)(F)F)nc2cc(Cl)c(Cl)cc21` was 10%.
The same measure, in the same setting: the value for `FC(F)(F)Cc1nc2cc(Cl)c(Cl)cc2n1Cc1ccc(SC(F)(F)F)cc1` was 13%.
The same measure, in the same setting: the value for `COCn1c(C(C)(O)C(F)(F)F)nc2cc(Cl)c(Cl)cc21` (centres undefined) was 88%; that for `CC(O)(c1nc2cc(Cl)c(Cl)cc2n1CC#N)C(F)(F)F` (centres undefined) was 54%.
On to `COc1ccc(C(=O)Cn2c(CC(F)(F)F)nc3cc(Cl)c(Cl)cc32)c(OC)c1`, for which the outcome in data set [1] was inactive.
The molecule `OC(c1nc2cc(Cl)c(Cl)cc2n1Cc1ccccn1)C(F)(F)F` (centres undefined) yielded an Inhibition in data set [1] of 84%.
In data set [1], `FC(F)(F)Cc1nc2cc(Cl)c(Cl)cc2n1Cc1cccc(C(F)(F)F)c1` registered an Inhibition of 74%. In data set [2], this molecule registered an ID50 of 0.4 mg/day.
In data set [1], `FC(F)(F)Cc1nc2cc(Cl)c(Cl)cc2n1Cc1ccccc1C(F)(F)F` registered an Inhibition of 86%.
The same measure, in the same setting: then `OCCn1c(CC(F)(F)F)nc2cc(Cl)c(Cl)cc21`, with 54%.
As to `Fc1ccccc1Cn1c(CC(F)(F)F)nc2cc(Cl)c(Cl)cc21`, in data set [1], the Inhibition was determined as 77%. This molecule came in with an ID50 in data set [2] of 0.82 mg/day.
In the case of `FC(F)(F)Cc1nc2cc(Cl)c(Cl)cc2n1Cc1ccccn1`, the Inhibition in data set [1] turned out to be 89%.
Still for that read-out and setting: then `FC(F)(F)Cc1nc2cc(Cl)c(Cl)cc2n1Cc1ccc(C(F)(F)F)cc1C(F)(F)F`, with 13%.
The same measure, in the same setting: then `FC(F)(F)Cc1nc2cc(Cl)c(Cl)cc2[nH]1`, with 90%; and `FC(F)(F)Cc1nc2cc(Cl)c(Cl)cc2n1CCOc1ccc(Cl)cc1`, with 48%.
As to `FC(F)(F)Cc1nc2cc(Cl)c(Cl)cc2n1Cc1ccccc1`, the Inhibition in data set [1] is 79%. The molecule further yielded an ID50 in data set [2] of 0.37 mg/day.
Consider `Fc1cccc(OCCn2c(CC(F)(F)F)nc3cc(Cl)c(Cl)cc32)c1`, for which the Inhibition in data set [1] worked out at 22%.
The same measure, in the same setting: the value for `OC(c1nc2cc(Cl)c(Cl)cc2[nH]1)C(F)(F)F` (centres undefined) was 96%; that for `O=[N+]([O-])c1cccc(Cn2c(CC(F)(F)F)nc3cc(Cl)c(Cl)cc32)c1` was 49%.
`FC(F)(F)Cc1nc2cc(Cl)c(Cl)cc2n1Cc1ccc(Br)cc1` showed an Inhibition in data set [1] of 75%. The ID50 in data set [2] came out at 0.13 mg/day.
As to `OC(c1nc2cc(Cl)c(Cl)cc2n1Cc1ccccc1)C(F)(F)F` (centres undefined), the Inhibition in data set [1] is listed as 49%.
On the same count and under the same terms, then `N#Cc1cccc(Cn2c(CC(F)(F)F)nc3cc(Cl)c(Cl)cc32)c1`, with 70%.
In the case of `COc1cccc(C(=O)Cn2c(CC(F)(F)F)nc3cc(Cl)c(Cl)cc32)c1`, the outcome in data set [1] was inactive.
Take `FC(F)(F)Cc1nc2cc(Cl)c(Cl)cc2n1Cc1ccccc1-c1ccccc1`: the Inhibition in data set [1] turned out to be 79%. The ID50 in data set [2] is given as 0.55 mg/day.
For the molecule `FC(F)(F)C(F)(F)c1nc2cc(Cl)c(Cl)cc2[nH]1`, in data set [4], the Activity result is given as “Toxic”.
